Test results taken from patent US8222299B2, “Organosulfur prodrugs for the prevention and treatment of infectious diseases” (Allium Vitalis Incorporated, priority 2003, dated 2012).
“Also recorded” adds a separate entry of the source.

Tests used:
[1] = cited from earlier work; for Reaction in Blood Half-life / Reaction in Blood Product (moles): in vitro
[2] = Non-enzymatic reaction of AllylSH with H2O2; type: physicochemical
Source text: Thiols are known to have various antioxidant properties, including the ability to scavenge (H2O2), although the specific ability of allyl mercaptan in this regard may not have been previously investigated.

[3] = compounds from Allium grayi Regel and Allium fistulosum; cited from earlier work
13 types of bacteria = details: cited from earlier work
pKa and ionization = type: physicochemical; details: pH of approximately 7
prostaglandin synthase = details: 50 uM/L; cited from earlier work
CYP2D6 = CYP2D6 (Homo sapiens, UniProt P10635); details: cited from earlier work
CYP2D6, sequence (P10635 whole entry): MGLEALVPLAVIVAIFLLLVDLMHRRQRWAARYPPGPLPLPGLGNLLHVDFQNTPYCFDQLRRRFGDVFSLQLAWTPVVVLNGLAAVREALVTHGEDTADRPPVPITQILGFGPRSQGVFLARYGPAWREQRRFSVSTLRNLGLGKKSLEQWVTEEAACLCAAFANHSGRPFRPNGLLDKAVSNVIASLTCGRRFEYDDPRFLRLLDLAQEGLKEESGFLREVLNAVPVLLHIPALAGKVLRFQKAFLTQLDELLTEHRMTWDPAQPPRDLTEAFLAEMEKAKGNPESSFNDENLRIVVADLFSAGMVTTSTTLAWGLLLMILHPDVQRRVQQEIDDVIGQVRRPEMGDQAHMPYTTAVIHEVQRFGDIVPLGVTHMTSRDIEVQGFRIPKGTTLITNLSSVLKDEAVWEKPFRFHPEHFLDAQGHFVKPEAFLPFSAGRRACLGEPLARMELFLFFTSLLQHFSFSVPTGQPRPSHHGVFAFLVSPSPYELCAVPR

[4] = cited from earlier work
Sendai virus = details: post treatment one hour after infection, measured 24 hours post infection; cited from earlier work
neutrophil influx = details: intravenous, 150 mg/kg; cited from earlier work
[5] = mice, cited from earlier work; for protection from acetaminophen poisoning, pretreatment: SAMC 100 mg/kg
uninfected cells = details: 0.01 mM
[6] = chemiluminescense assay; cited from earlier work
cells = details: in vitro exposure; cited from earlier work
SARS coronavirus = experiment: microbe, parasite or virus in culture; details: Severe acute respiratory syndrome coronavirus, read-out: reduction in the viability of infected cells

Structure (SMILES): C=CCS[S+]([O-])CC=C (stereo not shown) [Allicin, DiAllylThioSulfinate]
- time for metabolism to allyl-mercaptan ([1]; blood cells exposed to allicin): less than one minute
- Reaction in Blood Half-life [1]: <1 min
- Reaction in Blood Product (moles) [1]: AllylSH (1.6)

Structure (SMILES): C=CCS [AllylSH, AllylThiol]
- reaction with H2O2 at low concentration ([2]; initial 10 mM H2O2 and 0.85 mM Allyl-SH, FIG. 1): can reduce hydrogen peroxide

Structure (SMILES): CCCS[S+]([O-])CCC (stereo not shown) [CH3(CH2)2S˜SO(CH2)2CH3]
- nematicidal activity [3]: most effective compound found

Structure (SMILES): O=C(N[C@H](CO)[C@H](O)c1ccc([N+](=O)[O-])cc1)C(Cl)Cl [Chloramphenicol]
- species inhibited (13 types of bacteria; 13 types of bacteria): 12/13
- average zone of inhibition (13 types of bacteria): 20 mm

Structure (SMILES): N[C@@H](CS)C(=O)O [Cys, Cysteine]
- fraction ionized (pKa and ionization): approximately 3%

Structure (SMILES): C=CCSSCC=C [DADS, DiAllylDisulfide]
- reaction with H2O2 at high concentration ([2]; initial 40 mM H2O2 and 0.85 mM Allyl-SH, FIG. 2): further oxidized to Allicin
- inhibition of prostaglandin synthase (prostaglandin synthase): 69%
- Reaction in Blood Half-life [1]: 60 min
- Reaction in Blood Product (moles) [1]: AllylSH (0.8)
- activity of the enzymes (CYP2D6): up to 121 pmol/min/pmol CYP2D6
- conversion of DADS to allicin (CYP2D6; in 30 minutes): approximately 30%
- water solubility in words [4]: poor water solubility

Structure (SMILES): N[C@@H](CCC(=O)N[C@@H](CS)C(=O)NCC(=O)O)C(=O)O [Glutathione]
- reduction of the level of infection (Sendai virus): 95%

Structure (SMILES): CC(=O)N[C@@H](CS)C(=O)O [NAC, N-acetylcysteine]
- IL-1 induced neutrophil influx into lung lavages (neutrophil influx): inhibited

Structure (SMILES): C=CCSC[C@H](N)C(=O)O [S-allylcysteine]
- protection from acetaminophen poisoning, pretreatment [5]: not nearly as effective

Structure (SMILES): C=CCSSC[C@H](N)C(=O)O [SAMC, S-AllylMercaptoCysteine]
- toxicity to uninfected cells (uninfected cells): no toxicity
- antioxidant or pro-oxidant activity [6]: by far the most effective antioxidant
- total glutathione level of cells (cells): significantly increase; also recorded: significant increase
- protection from acetaminophen poisoning, pretreatment [5]: protect mice
- protection from acetaminophen poisoning, post treatment ([5]; single dose 200 mg/kg shortly after exposure): protective
- Reaction in Blood Product (moles) [1]: AllylSH (0.8)
- inhibition at 10 µM (SARS coronavirus): 6%
